Measured values: patent publication US20260007681A1, “INDOLE DERIVATIVES AS ESTROGEN RECEPTOR DEGRADERS” (REGENTS OF THE UNIVERSITY OF MICHIGAN, priority 2022, published 2026)
Like-named read-outs stand apart in the source and are kept apart here.

How the values were obtained:
CRBN/DDB1 = CRBN/DDB1 (Homo sapiens (Human), UniProt Q96SW2); type: binding; conditions: His tagged CRBN+DDB-DLS7+CXU4, Cy5-labeled Thalidomide probe, one hour incubation; read-out: CRBN HTRF IC50
Description: The binding potency was determined using H-TRF assay technology (Perkin Elmer). Compounds were serially diluted in DMSO and 0.2 μL volume was transferred to white 384-well plate.

ERα_LBD(GST) = ERα_LBD(GST) (Homo sapiens (Human), UniProt P03372); experiment: IC50 measurements for binding to ERα_LBD (GST), LanthaScreen TR-FRET ERα competitive binding assay; conditions: 4 nM ERα_LBD(GST), 3 nM Fluormone ES2 Green tracer, 60 min; read-out: ERα HTRF IC50
Description: • 1. ERα_LBD(GST) protein: 4 nM • 2. Tb Anti-GST: 2 nM • 3. Fluormone ES2 Green tracer: 3 nM • 4. Incubation time: 60 min • 5. DMSO: 1% • 6. Assay buffer: Adding 1M DTT to Nuclear receptor Buffer K for final 5 mM DTT. • 7. ZPE: 1% DMSO • 8. HPE: 1 μM ARV_471 • 9. LanthaScreen® TR-FRET ERα Competitive Binding Assay (ThermoFisher, #A15887)
• 1) Cherry pick 2 μL 10 mM compound stock to column 1 of a 384 intermediate plate • 2) Add 18 μL DMSO to column 1 to dilute compound to 1 mM. • 3) Transfer 10 μL 1 mM compound to column 1 of a LDV plate. • 4) Add 6 μl DMSO to column 2-10 of the LDV plate. • 5) Compounds undergo 3-fold serial dilution (3 μL+6 μL) in DMSO. • 6) Transfer 120 nL compound solution to assay plate. • ZPE: 120 nL 100% DMSO
Prepare complete nuclear receptor buffer K by adding 1 M DTT to nuclear receptor buffer K for a final concentration of 5 mM DTT. Complete nuclear receptor buffer K must be prepared fresh daily. Prepare 2X protein solution using complete nuclear receptor buffer K containing 8 nM ERα_LBD(GST) and 4 nM Tb Anti-GST. Then, prepare 2× Fluormone ES2 Green tracer (6 nM) using complete nuclear receptor buffer K. Add 6 μL 2× Fluormone ES2 green tracer into a compound plate (PerkinElmer 6008289) by dragonfly with one-tips-addition. Subsequently, add 6 μL 2× protein solution into the plate. Briefly and gently mix the 384-well plate on a plate shaker and incubate at room temperature protected from light for 60 min. The plate is sealed with a cover to minimize evaporation. Read the plate at wavelengths of 520 nm and 495 nm. Calculate the TR-FRET ratio by dividing the emission signal at 520 nm by the emission signal at 495 nm. Generate a binding curve by plotting the emission ratio vs. the log [ligand]. To determine the IC50 value, fit the data using XL-fit for a sigmoidal dose-response.

ER in MCF-7 cells = ER in MCF-7 cells (Homo sapiens (Human), UniProt P03372); experiment: In-cell western (ICW) ER degradation assay in MCF-7 cells (Compounds A1-A70); type: cell-based; conditions: MCF-7 cells, 16 hrs treatment; for DC50: ER degradation, 0.02 to 300 nM, read-out: MCF7 ICW DC50; for Dmax: MCF7, maximal ER degradation, read-out: MCF7 ICW Dmax (%); for MCF7 ICW Dmax (%): maximal ER degradation
ER in T47D cells = ER in T47D cells (Homo sapiens (Human), UniProt P03372); experiment: In-cell western (ICW) ER degradation assay in T47D cells (Compounds A1-A70); type: cell-based; conditions: T47D cells, 16 hrs treatment; for DC50: ER degradation, 0.02 to 300 nM; for T47D ICW Dmax (%) / Dmax: maximal ER degradation; for Dmax: read-out: T47D ICW Dmax (%)
Sequence of ER in T47D cells (P03372 whole entry): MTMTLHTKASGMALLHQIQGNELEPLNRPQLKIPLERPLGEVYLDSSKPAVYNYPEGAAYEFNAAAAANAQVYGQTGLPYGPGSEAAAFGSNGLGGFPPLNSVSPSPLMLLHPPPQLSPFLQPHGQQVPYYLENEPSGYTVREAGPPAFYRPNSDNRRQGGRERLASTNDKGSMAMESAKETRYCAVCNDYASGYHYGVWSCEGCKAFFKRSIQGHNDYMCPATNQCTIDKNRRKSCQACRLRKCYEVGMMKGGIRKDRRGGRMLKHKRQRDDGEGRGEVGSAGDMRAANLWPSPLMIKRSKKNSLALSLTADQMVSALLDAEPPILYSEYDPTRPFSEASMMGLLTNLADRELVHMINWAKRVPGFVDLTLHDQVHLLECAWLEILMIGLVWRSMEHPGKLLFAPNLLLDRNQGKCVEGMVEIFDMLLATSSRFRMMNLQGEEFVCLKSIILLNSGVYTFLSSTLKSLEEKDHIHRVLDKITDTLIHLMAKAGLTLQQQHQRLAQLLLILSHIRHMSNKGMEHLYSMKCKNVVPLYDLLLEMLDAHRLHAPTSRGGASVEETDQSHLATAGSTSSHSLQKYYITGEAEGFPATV

Sequence of ER in MCF-7 cells (P03372 whole entry): as above
Sequence of CRBN/DDB1 (Q96SW2 whole entry): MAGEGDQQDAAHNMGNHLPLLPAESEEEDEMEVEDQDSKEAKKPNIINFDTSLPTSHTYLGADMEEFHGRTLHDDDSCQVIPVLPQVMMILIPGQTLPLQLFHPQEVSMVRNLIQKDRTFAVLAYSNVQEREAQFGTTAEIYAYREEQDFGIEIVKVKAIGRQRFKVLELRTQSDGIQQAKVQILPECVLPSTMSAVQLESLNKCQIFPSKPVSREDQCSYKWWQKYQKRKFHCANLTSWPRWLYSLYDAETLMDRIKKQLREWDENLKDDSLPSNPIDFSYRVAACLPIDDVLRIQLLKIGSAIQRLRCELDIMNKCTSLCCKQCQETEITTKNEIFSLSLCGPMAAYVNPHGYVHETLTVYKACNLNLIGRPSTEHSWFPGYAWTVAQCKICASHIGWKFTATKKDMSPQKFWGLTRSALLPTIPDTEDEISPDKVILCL
Sequence of CRBN/DDB1 (Q16531 whole entry partner): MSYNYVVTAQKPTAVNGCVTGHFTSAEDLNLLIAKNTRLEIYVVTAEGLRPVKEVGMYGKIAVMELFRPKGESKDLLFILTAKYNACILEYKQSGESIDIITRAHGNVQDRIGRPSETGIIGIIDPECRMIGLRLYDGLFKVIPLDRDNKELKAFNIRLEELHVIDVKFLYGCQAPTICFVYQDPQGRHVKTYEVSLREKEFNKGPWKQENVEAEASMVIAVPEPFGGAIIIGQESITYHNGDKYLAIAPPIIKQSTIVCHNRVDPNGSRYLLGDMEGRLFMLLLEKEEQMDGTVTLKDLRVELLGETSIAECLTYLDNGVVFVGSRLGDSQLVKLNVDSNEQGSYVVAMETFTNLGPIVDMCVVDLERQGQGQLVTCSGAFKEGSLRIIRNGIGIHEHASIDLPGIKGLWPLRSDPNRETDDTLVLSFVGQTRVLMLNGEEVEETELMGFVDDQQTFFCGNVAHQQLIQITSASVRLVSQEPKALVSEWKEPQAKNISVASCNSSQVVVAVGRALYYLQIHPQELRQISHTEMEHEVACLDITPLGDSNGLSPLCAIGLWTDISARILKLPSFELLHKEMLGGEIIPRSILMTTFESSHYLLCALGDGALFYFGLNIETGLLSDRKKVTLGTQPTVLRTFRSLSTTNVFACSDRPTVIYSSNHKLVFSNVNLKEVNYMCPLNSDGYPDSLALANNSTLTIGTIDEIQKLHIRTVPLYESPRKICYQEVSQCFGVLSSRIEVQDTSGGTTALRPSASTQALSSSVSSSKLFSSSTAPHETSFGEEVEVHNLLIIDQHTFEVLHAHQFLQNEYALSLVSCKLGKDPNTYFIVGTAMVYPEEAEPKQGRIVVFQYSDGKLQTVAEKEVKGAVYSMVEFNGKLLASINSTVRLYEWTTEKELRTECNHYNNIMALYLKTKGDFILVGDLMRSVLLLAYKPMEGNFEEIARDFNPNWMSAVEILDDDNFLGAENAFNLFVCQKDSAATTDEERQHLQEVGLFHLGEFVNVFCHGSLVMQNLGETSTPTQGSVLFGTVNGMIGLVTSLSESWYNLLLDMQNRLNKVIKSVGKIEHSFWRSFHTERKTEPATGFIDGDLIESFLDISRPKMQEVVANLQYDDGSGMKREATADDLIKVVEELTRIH
Sequence of ERα_LBD(GST) (P03372 311-547): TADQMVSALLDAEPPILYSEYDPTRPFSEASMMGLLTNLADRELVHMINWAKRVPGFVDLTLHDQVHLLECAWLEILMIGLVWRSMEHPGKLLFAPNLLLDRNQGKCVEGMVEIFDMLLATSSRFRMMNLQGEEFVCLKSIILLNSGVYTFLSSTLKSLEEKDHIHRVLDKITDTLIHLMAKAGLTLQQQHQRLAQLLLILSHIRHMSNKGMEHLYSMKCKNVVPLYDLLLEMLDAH

## COc1cc(N2CCC(CN3CCN4c5ccc6c(c5OC[C@H]4C3)CN([C@H]3CCC(=O)NC3=O)C6=O)CC2)ccc1[C@@H]1c2[nH]c3ccccc3c2C[C@@H](C)N1CC(F)F [Compound A19, (S)-3-((R)-7-((1-(4-((1R,3R)-2-(2,2-difluoroethyl)-3-methyl-2,3,4,9-tetrahydro-1H-pyrido[3,4-b]indol-1-yl)-3-methoxyphenyl)piperidin-4-yl)methyl)-1-oxo-1,3,5,5a,6,7,8,9-octahydro-2H-pyrazino[1′,2′:4,5][1,4]oxazino[2,3-c]isoindol-2-yl)piperidine-2,6-dione]
CRBN/DDB1
  IC50: 50 to 500 nM
ERα_LBD(GST)
  IC50: < 10 nM
ER in MCF-7 cells
  DC50: 1 to 10 nM
  Dmax: 50 to 75%

## COc1cc(N2CCC(CN3CCN4c5cc6c(cc5OC[C@@H]4C3)C(=O)N([C@H]3CCC(=O)NC3=O)C6)CC2)ccc1[C@@H]1c2[nH]c3ccccc3c2C[C@@H](C)N1CC(F)F [Compound A28, (S)-3-((S)-3-((1-(4-((1R,3R)-2-(2,2-difluoroethyl)-3-methyl-2,3,4,9-tetrahydro-1H-pyrido[3,4-b]indol-1-yl)-3-methoxyphenyl)piperidin-4-yl)methyl)-8-oxo-1,2,3,4,4a,5,8,10-octahydro-9H-pyrazino[1′,2′:4,5][1,4]oxazino[2,3-f]isoindol-9-yl)piperidine-2,6-dione]
CRBN/DDB1
  IC50: 50 to 500 nM
ERα_LBD(GST)
  IC50: < 10 nM
ER in MCF-7 cells
  DC50: < 1 nM
  MCF7 ICW Dmax (%): C (“C”: 25%-50%)
ER in T47D cells
  DC50: < 1 nM
  T47D ICW Dmax (%): B (“B”: >50% and <75%)

## COc1cc(N2CCC(CN3CCN4c5cc6c(cc5OC[C@@H]4C3)C(=O)N([C@H]3CCC(=O)NC3=O)C6)CC2)ccc1[C@@H]1c2[nH]c3ccccc3c2C[C@@H](C)N1CC(F)F [Compound A29, (S)-3-((S)-3-((1-(4-((1R,3R)-2-(2,2-difluoroethyl)-3-methyl-2,3,4,9-tetrahydro-1H-pyrido[3,4-b]indol-1-yl)-3-methoxyphenyl)piperidin-4-yl)methyl)-8-oxo-1,2,3,4,4a,5,8,10-octahydro-9H-pyrazino[1′,2′:4,5][1,4]oxazino[2,3-f]isoindol-9-yl)piperidine-2,6-dione]
CRBN/DDB1
  IC50: 500 to 5000 nM
ERα_LBD(GST)
  IC50: < 10 nM
ER in MCF-7 cells
  DC50: < 1 nM
  MCF7 ICW Dmax (%): B (“B”: >50% and <75%)
ER in T47D cells
  DC50: < 1 nM
  T47D ICW Dmax (%): A (“A”: >=75%)

## C[C@@H]1Cc2c([nH]c3ccccc23)[C@@H](c2cnc(N3CCC(CN4CCC5(CC4)COc4cc6c(cc45)CN(C4CCC(=O)NC4=O)C6=O)CC3)nc2)N1CC(F)(F)CO (stereo partly drawn) [Compound A36, 3-(1′-((1-(5-((1R,3R)-2-(2,2-difluoro-3-hydroxypropyl)-3-methyl-2,3,4,9-tetrahydro-1H-pyrido[3,4-b]indol-1-yl)pyrimidin-2-yl)piperidin-4-yl)methyl)-7-oxo-5,7-dihydro-2H,6H-spiro[furo[2,3-f]isoindole-3,4′-piperidin]-6-yl) piperidine-2,6-dione]
CRBN/DDB1
  IC50: 50 to 500 nM
ERα_LBD(GST)
  IC50: < 10 nM
ER in MCF-7 cells
  DC50: 1 to 10 nM
  Dmax: 25 to 50%
ER in T47D cells
  DC50: < 1 nM
  Dmax: 50 to 75%

## COc1cc(N2CCC(CN3CCN4c5ccc6c(c5OC[C@H]4C3)CN([C@@H]3CCC(=O)NC3=O)C6=O)CC2)ccc1[C@@H]1c2[nH]c3ccccc3c2C[C@@H](C)N1CC(F)F [Compound A37, (R)-3-((R)-7-((1-(4-((1R,3R)-2-(2,2-difluoroethyl)-3-methyl-2,3,4,9-tetrahydro-1H-pyrido[3,4-b]indol-1-yl)-3-methoxyphenyl)piperidin-4-yl)methyl)-1-oxo-1,3,5,5a,6,7,8,9-octahydro-2H-pyrazino[1′,2′:4,5][1,4]oxazino[2,3-e]isoindol-2-yl)piperidine-2,6-dione]
CRBN/DDB1
  IC50: > 5000 nM
ERα_LBD(GST)
  IC50: < 10 nM
ER in MCF-7 cells
  DC50: < 1 nM
  Dmax: 50 to 75%
ER in T47D cells
  DC50: < 1 nM
ER in T47D cells; T47D
  Dmax: > 75%

## COc1cc(N2CCC(CN3CCN4c5ccc6c(c5OC[C@@H]4C3)CN([C@H]3CCC(=O)NC3=O)C6=O)CC2)ccc1[C@@H]1c2[nH]c3ccccc3c2C[C@@H](C)N1CC(F)F [Compound A45, (S)-3-((S)-7-((1-(4-((1R,3R)-2-(2,2-difluoroethyl)-3-methyl-2,3,4,9-tetrahydro-1H-pyrido[3,4-b]indol-1-yl)-3-methoxyphenyl)piperidin-4-yl)methyl)-1-oxo-1,3,5,5a,6,7,8,9-octahydro-2H-pyrazino[1′,2′:4,5][1,4]oxazino[2,3-e]isoindol-2-yl)piperidine-2,6-dione]
CRBN/DDB1
  IC50: > 5000 nM
ERα_LBD(GST)
  IC50: < 10 nM
ER in MCF-7 cells
  DC50: < 1 nM
  MCF7 ICW Dmax (%): A (“A”: >=75%)
ER in T47D cells
  DC50: < 1 nM
ER in T47D cells; T47D
  Dmax: > 75%

## COc1cc(N2CCC(CN3CCN(c4ccc(C(=O)N[C@H]5CCC(=O)NC5=O)nc4)CC3)CC2)ccc1[C@@H]1c2[nH]c3ccccc3c2C[C@@H](C)N1CC(F)F [Compound A55, 5-(4-((1-(4-((1R,3R)-2-(2,2-difluoroethyl)-3-methyl-2,3,4,9-tetrahydro-1H-pyrido[3,4-b]indol-1-yl)-3-methoxyphenyl)piperidin-4-yl)methyl)piperazin-1-yl)-N—((S)-2,6-dioxopiperidin-3-yl)picolinamide]
CRBN/DDB1
  IC50: > 5000 nM
ERα_LBD(GST)
  IC50: < 10 nM
ER in MCF-7 cells
  DC50: < 1 nM

## C[C@@H]1Cc2c([nH]c3ccccc23)[C@@H](c2cnc(N3CCC4(CC3)C[C@@H](CN3CCN5c6ccc(C(=O)N[C@H]7CCC(=O)NC7=O)nc6OC[C@H]5C3)CO4)nc2)N1CC(F)F [Compound A63, (4aR)-3-((8-(5-((1R,3R)-2-(2,2-difluoroethyl)-3-methyl-2,3,4,9-tetrahydro-1H-pyrido[3,4-b]indol-1-yl)pyrimidin-2-yl)-1-oxa-8-azaspiro[4.5]decan-3-yl)methyl)-N—((S)-2,6-dioxopiperidin-3-yl)-1,2,3,4,4a,5-hexahydropyrazino[1,2-d]pyrido[2,3-b][1,4]oxazine-8-carboxamide]
CRBN/DDB1
  IC50: 500 to 5000 nM
ERα_LBD(GST)
  IC50: ≥ 10 nM
ER in MCF-7 cells
  DC50: 1 to 10 nM
  Dmax: 50 to 75%
ER in T47D cells
  DC50: 1 to 10 nM
ER in T47D cells; T47D
  Dmax: 50 to 75%

## C[C@H]1Cc2c([nH]c3ccccc23)[C@H](c2cnc(N3CCC4(CC3)C[C@H](CN3CCN5c6cc7c(cc6OC[C@@H]5C3)C(=O)N([C@@H]3CCC(=O)NC3=O)C7)CO4)nc2)N1CC(F)F [Compound A69, (R)-3-((S)-3-(((R)-8-(5-((1S,3S)-2-(2,2-difluoroethyl)-3-methyl-2,3,4,9-tetrahydro-1H-pyrido[3,4-b]indol-1-yl)pyrimidin-2-yl)-1-oxa-8-azaspiro[4.5]decan-3-yl)methyl)-8-oxo-1,2,3,4,4a,5,8,10-octahydro-9H-pyrazino[1′,2′:4,5][1,4]oxazino[2,3-f]isoindol-9-yl)piperidine-2,6-dione]
CRBN/DDB1
  IC50: 50 to 500 nM
ERα_LBD(GST)
  IC50: ≥ 10 nM
ER in MCF-7 cells
  DC50: < 1 nM
  Dmax: > 75%
ER in T47D cells
  DC50: < 1 nM
ER in T47D cells; T47D
  Dmax: > 75%
